Consider three molecules from BindingDB's records for doi:10.1016/j.bmcl.2003.08.040 (Toa Eiyo, 2003).

In this assay the target is Chymotrypsinogen A (Bos taurus) (UniProt P00766). Kind of assay: In vitro inhibitory activity against bovin chymotrypsin.

`COC(=O)c1ccc(NS(=O)(=O)c2sc3ccc(Cl)cc3c2C)c(S(C)(=O)=O)c1` [4-(5-Chloro-3-methyl-benzo[b]thiophene-2-sulfonylamino)-3-methanesulfonyl-benzoic acid methyl ester]: the IC50 was more than 10 µM. `COC(=O)c1ccc(NS(=O)(=O)c2sc3ccc(F)cc3c2C)c(S(C)(=O)=O)c1` [4-(5-Fluoro-3-methyl-benzo[b]thiophene-2-sulfonylamino)-3-methanesulfonyl-benzoic acid methyl ester]: the IC50 was more than 10 µM. Regarding `CC(=O)c1ccc(NS(=O)(=O)c2sc3ccc(F)cc3c2C)c(S(C)(=O)=O)c1` [5-Fluoro-3-methyl-benzo[b]thiophene-2-sulfonic acid (4-acetyl-2-methanesulfonyl-phenyl)-amide], the half-inhibitory concentration (IC50) was more than 10 µM.
